Measurements as given in the NIST ThermoML archive (doi:10.1016/j.jct.2011.02.018).

Test: xn = mol fraction of the nth substance listed
Conditions: 101 kPa, Liquid; for viscosity: Concentric cylinders viscometry; for mass density: Vibrating tube method

COC(C)(C)C [2-methoxy-2-methylpropane] + CC(C)O
Conditions | mass density, 293.15 K [kg/m3] | mass density, 298.15 K [kg/m3] | viscosity, 293.15 K [mPa·s] | viscosity, 298.15 K [mPa·s]
x1 = 0.0093 | 784.82 | 780.63 | 2.325 | 1.988
x1 = 0.0206 | 784.14 | 779.92 | 2.232 | 1.919
x1 = 0.0305 | 783.55 | 779.33 | 2.145 | 1.853
x1 = 0.0398 | 783 | 778.77 | 2.066 | 1.773
x1 = 0.0499 | 782.41 | 778.17 | 1.982 | 1.719
x1 = 0.0601 | 781.75 | 777.51 | 1.901 | 1.653
x1 = 0.0702 | 781.19 | 776.93 | 1.832 | 1.595
x1 = 0.0799 | 780.66 | 776.38 | 1.761 | 1.538
x1 = 0.0914 | 780.12 | 775.85 | 1.693 | 1.479
x1 = 0.1009 | 779.62 | 775.32 | 1.634 | 1.432
x1 = 0.1493 | 777.01 | 772.62 | 1.391 | 1.235
x1 = 0.2014 | 774.27 | 769.81 | 1.193 | 1.057
x1 = 0.244 | 771.96 | 767.45 | 1.05 | 0.9465
x1 = 0.2863 | 769.95 | 765.38 | 0.9352 | 0.8443
x1 = 0.3081 | 768.87 | 764.26 | 0.885 | 0.8004
x1 = 0.351 | 766.72 | 762.06 | 0.8018 | 0.729
x1 = 0.3995 | 764.43 | 759.73 | 0.7225 | 0.6613
x1 = 0.4516 | 762.08 | 757.31 | 0.6544 | 0.6008
x1 = 0.4999 | 759.97 | 755.15 | 0.6 | 0.5578
x1 = 0.5497 | 757.86 | 752.98 | 0.5545 | 0.5128
x1 = 0.5994 | 755.8 | 750.88 | 0.5151 | 0.477
x1 = 0.6493 | 753.77 | 748.81 | 0.4839 | 0.4481
x1 = 0.6993 | 751.8 | 746.81 | 0.4525 | 0.4253
x1 = 0.7499 | 749.84 | 744.78 | 0.4259 | 0.398
x1 = 0.8015 | 747.89 | 742.8 | 0.4066 | 0.3819
x1 = 0.8509 | 746.05 | 740.92 | 0.3844 | 0.3613
x1 = 0.8997 | 744.25 | 739.1 | 0.3678 | 0.3459
x1 = 0.9089 | 743.91 | 738.76 | 0.3718 | 0.3448
x1 = 0.9191 | 743.54 | 738.35 | 0.3617 | 0.3398
x1 = 0.9294 | 743.17 | 737.99 | 0.3609 | 0.3374
x1 = 0.9401 | 742.78 | 737.6 | 0.3548 | 0.3317
x1 = 0.9512 | 742.37 | 737.18 | 0.355 | 0.3361
x1 = 0.9587 | 742.11 | 736.92 | 0.3558 | 0.3309
x1 = 0.97 | 741.7 | 736.51 | 0.3466 | 0.3247
x1 = 0.9777 | 741.42 | 736.23 | 0.3447 | 0.3228
x1 = 0.9897 | 740.99 | 735.8 | 0.342 | 0.3204
